From PubChem BioAssay AID328 (DTP/NCI, 2004) come the findings set out here.

Several values for one entry are separate records, joined by “and”; a condition that tells them apart may be missing. Equal entries are not always repeated. Toxic doses and inconclusive results are not listed.

The subject of the assay is BDF1 mice, P388 leukemia ip, median survival T/C. Briefly: NCI In Vivo Anticancer Drug Screen. Data for tumor model P388 Leukemia (intraperitoneal) in B6D2F1 (BDF1) mice. Conditions: endpoint: median survival time, higher = longer survival. The method, boiled down:
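Reported as T/C, where T is the survival measurement in dosed animals and C the same measurement in vehicle controls.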

Where [1] appears, read: dose: 50.0 mg/kg/injection, schedule: Q01DX009 (ip), vehicle: saline with Tween-80.
Where [2] appears, read: dose: 100.0 mg/kg/injection, schedule: Q01DX009 (ip), vehicle: saline with Tween-80.
Where [3] appears, read: dose: 25.0 mg/kg/injection, schedule: Q01DX009 (ip), vehicle: saline with Tween-80.
Setting [4] is: dose: 6.25 mg/kg/injection, schedule: Q01DX009 (ip), vehicle: saline.
The mark [5] stands for this setting: dose: 50.0 mg/kg/injection, schedule: Q01DX009 (ip), vehicle: saline.
Setting [6] is: dose: 100.0 mg/kg/injection, schedule: Q01DX009 (ip), vehicle: saline.
The mark [7] stands for this setting: dose: 200.0 mg/kg/injection, schedule: Q01DX009 (ip), vehicle: saline.
The mark [8] stands for this setting: dose: 12.5 mg/kg/injection, schedule: Q01DX009 (ip), vehicle: saline.
The mark [9] stands for this setting: dose: 25.0 mg/kg/injection, schedule: Q01DX009 (ip), vehicle: saline.

`O=C(C[n+]1ccccc1)N/N=C/c1ccc([N+](=O)[O-])s1`: the T/C reads like this: (dose: 12.5 mg/kg/injection, schedule: Q01DX009 (ip), vehicle: water) 114 % of control; (dose: 25.0 mg/kg/injection, schedule: Q04DX003 (ip), vehicle: water) 90 % of control; (dose: 50.0 mg/kg/injection, schedule: Q04DX003 (ip), vehicle: water) 104 % of control.
In the case of `CC(C)(C)c1cc(C(C)(C)c2ccccc2)cc(Cc2cc(C(C)(C)c3ccccc3)cc(C(C)(C)C)c2O)c1O`, the T/C runs as follows: (dose: 50.0 mg/kg/injection, schedule: Q01DX009 (ip), vehicle: saline + Tween-80 + alcohol) 118 % of control; under setting [1], 96 % of control; (dose: 100.0 mg/kg/injection, schedule: Q01DX009 (ip), vehicle: saline + Tween-80 + alcohol) 90 % of control; under setting [2], 100 % of control; (dose: 200.0 mg/kg/injection, schedule: Q01DX009 (ip), vehicle: saline + Tween-80 + alcohol) 115 % of control; (dose: 200.0 mg/kg/injection, schedule: Q01DX009 (ip), vehicle: saline with Tween-80) 124 % of control. For the same compound, the T/C (dose: 400.0 mg/kg/injection, schedule: Q01DX009 (ip), vehicle: saline + Tween-80 + alcohol) was 107 % of control.
Take `O=[N+]([O-])/C=C\c1cc2c3c(c1)CCCN3CCC2`: the T/C is, setting by setting: (dose: 3.13 mg/kg/injection, schedule: Q01DX001 (ip), vehicle: saline with Tween-80) 100 % of control; (dose: 6.25 mg/kg/injection, schedule: Q01DX001 (ip), vehicle: saline with Tween-80) 100 % of control; (dose: 12.5 mg/kg/injection, schedule: Q01DX001 (ip), vehicle: saline with Tween-80) 104 % of control.
Turning to `C=C(C)C12OC3(c4ccccc4)OC1C1C4OC4(CO)C(O)C4(O)C(=O)C(C)=CC4C1(O3)C(C)C2OC(=O)/C=C/C=C/c1ccccc1` (stereo unspecified), the T/C (dose: 0.01 mg/kg/injection, schedule: Q01DX009 (ip), vehicle: saline + alcohol) was 115 % of control; the T/C (dose: 0.02 mg/kg/injection, schedule: Q01DX009 (ip), vehicle: saline + alcohol) is 94 % of control; the T/C (dose: 0.03 mg/kg/injection, schedule: Q01DX009 (ip), vehicle: saline + alcohol) is 123 % of control; the T/C (dose: 0.5 mg/kg/injection, schedule: Q01DX009 (ip), vehicle: saline + alcohol) was 156 % of control; the T/C (dose: 3.1 micrograms/kg/injection, schedule: Q01DX009 (ip), vehicle: saline + alcohol) is 123 % of control; the T/C (dose: 6.0 micrograms/kg/injection, schedule: Q01DX009 (ip), vehicle: saline + alcohol) was 101 % of control. Also, the T/C is, setting by setting: (dose: 6.3 micrograms/kg/injection, schedule: Q01DX009 (ip), vehicle: saline + alcohol) 104 % of control; (dose: 12.5 micrograms/kg/injection, schedule: Q01DX009 (ip), vehicle: saline + alcohol) 123 % of control; (dose: 25.0 micrograms/kg/injection, schedule: Q01DX009 (ip), vehicle: gum acacia) 121 % of control; (dose: 25.0 micrograms/kg/injection, schedule: Q01DX009 (ip), vehicle: saline + alcohol) 124 % of control; (dose: 25.0 micrograms/kg/injection, schedule: Q01DX009 (ip), vehicle: saline with Tween-80) 200 % of control; (dose: 50.0 micrograms/kg/injection, schedule: Q01DX009 (ip), vehicle: gum acacia) 90 % of control. The T/C reads like this: (dose: 50.0 micrograms/kg/injection, schedule: Q01DX009 (ip), vehicle: saline + alcohol) 155 % of control; (dose: 50.0 micrograms/kg/injection, schedule: Q01DX009 (ip), vehicle: saline with Tween-80) 92 % of control; (dose: 100.0 micrograms/kg/injection, schedule: Q01DX009 (ip), vehicle: saline with Tween-80) 88 % of control.
As for `COc1cccc(Sc2ccc([N+](=O)[O-])c3nonc23)c1`, the T/C is, setting by setting: (dose: 12.5 mg/kg/injection, schedule: Q01DX009 (ip), vehicle: saline with Tween-80) 102 % of control; under setting [3], 107 % of control.
On to `COc1ccc([I+]c2ccccc2)cc1`, for which the T/C is, setting by setting: (dose: 1.56 mg/kg/injection, schedule: Q01DX009 (ip), vehicle: saline) 87 % of control; (dose: 3.13 mg/kg/injection, schedule: Q01DX009 (ip), vehicle: saline) 104 % of control; under setting [4], 112 % of control and 120 % of control; (dose: 12.5 mg/kg/injection, schedule: Q04DX003 (ip), vehicle: saline sonified) 105 % of control; (dose: 25.0 mg/kg/injection, schedule: Q04DX003 (ip), vehicle: saline sonified) 110 % of control.
In the case of `O=C(C=C(C(F)(F)F)C(F)(F)F)c1ccc(F)cc1`, the T/C (dose: 6.25 mg/kg/injection, schedule: Q01DX009 (ip), vehicle: Klucel (hydroxypropylcellulose) (HPC)) was 101 % of control; the T/C (dose: 6.25 mg/kg/injection, schedule: Q01DX009 (ip), vehicle: other) was 100 % of control; the T/C (dose: 12.5 mg/kg/injection, schedule: Q01DX009 (ip), vehicle: Klucel (hydroxypropylcellulose) (HPC)) was 105 % of control; the T/C (dose: 12.5 mg/kg/injection, schedule: Q01DX009 (ip), vehicle: other) is 109 % of control; the T/C (dose: 16.5 mg/kg/injection, schedule: Q01DX009 (ip), vehicle: other) was 113 % of control; the T/C (dose: 25.0 mg/kg/injection, schedule: Q01DX009 (ip), vehicle: Klucel (hydroxypropylcellulose) (HPC)) was 118 % of control. For the same compound, where the note is “dose: 25.0 mg/kg/injection, schedule: Q01DX009 (ip), vehicle: other”, the T/C is 118 % of control.
Regarding `NC(=S)N/N=C/C(=N\NC(N)=S)C(O)C(O)C(O)CO` (stereo unspecified), the T/C under setting [3] was 100 % of control; the T/C under setting [1] was 95 % of control; the T/C under setting [2] is 100 % of control; the T/C (dose: 100.0 mg/kg/injection, schedule: Q04DX003 (ip), vehicle: saline sonified) was 100 % of control.
With `Cn1ncc2c(NCCc3ccccc3)ncnc21`, the T/C runs as follows: under setting [3], 100 % of control; under setting [1], 100 % of control.
Regarding `C=CCN1C(=O)CNC1=O`, the T/C was 93 % of control under setting [5], 100 % of control under setting [6] and 101 % of control under setting [7].
Consider `CC1=COC2CCCCC2O1` (stereo unspecified) (tested in a mixture with another compound), for which the T/C (dose: 100.0 mg/kg/injection, schedule: Q01DX009 (ip), vehicle: acetone) was 104 % of control; the T/C (dose: 200.0 mg/kg/injection, schedule: Q01DX009 (ip), vehicle: acetone) is 96 % of control; the T/C (dose: 400.0 mg/kg/injection, schedule: Q01DX009 (ip), vehicle: acetone) is 96 % of control.
Turning to `CCCNCC(O)c1cc(C(F)(F)F)nc2c(C(F)(F)F)cccc12` (stereo unspecified), the T/C is 115 % of control under setting [1] and 104 % of control under setting [2].
Consider `COC(=O)C(Br)C(Br)c1ccc(-c2ccccc2)cc1` (stereo unspecified), for which the T/C by setting is: (dose: 100.0 mg/kg/injection, schedule: Q04DX003 (ip), vehicle: saline with Tween-80) 92 % of control; (dose: 200.0 mg/kg/injection, schedule: Q04DX003 (ip), vehicle: saline with Tween-80) 89 % of control; (dose: 400.0 mg/kg/injection, schedule: Q04DX003 (ip), vehicle: saline with Tween-80) 104 % of control.
Regarding `CC(CN1CC(=O)NC(=O)C1)N1CC(=O)NC(=O)C1.[Cl-].[Pt+4]` (stereo unspecified), the T/C was 100 % of control under setting [8]; 95 % of control and 118 % of control under setting [9]; 97 % of control under setting [5]; 91 % of control under setting [6]; 105 % of control under setting [7].
With `CCOC(=O)C(C(C)=O)C(c1ccc([N+](=O)[O-])cc1)C(C(C)=O)C(=O)OCC` (stereo unspecified), the T/C reads like this: (dose: 0.78 mg/kg/injection, schedule: Q04DX003 (ip), vehicle: saline) 117 % of control; (dose: 1.56 mg/kg/injection, schedule: Q04DX003 (ip), vehicle: saline) 114 % of control; (dose: 3.12 mg/kg/injection, schedule: Q01DX009 (ip), vehicle: saline) 108 % of control; (dose: 3.12 mg/kg/injection, schedule: Q04DX003 (ip), vehicle: saline) 104 % of control; under setting [4], 106 % of control; (dose: 6.25 mg/kg/injection, schedule: Q04DX003 (ip), vehicle: saline) 99 % of control. The T/C under setting [8] was 100 % of control; the T/C (dose: 12.5 mg/kg/injection, schedule: Q04DX003 (ip), vehicle: saline) was 111 % of control; the T/C under setting [9] was 92 % of control; the T/C (dose: 25.0 mg/kg/injection, schedule: Q04DX003 (ip), vehicle: saline) was 99 % of control; the T/C under setting [5] was 89 % of control; the T/C under setting [6] was 93 % of control.
